Measurements as given in article PMC10383573, “New Imadazopyrazines with CDK9 Inhibitory Activity as Anticancer and Antiviral: Synthesis, In Silico, and In Vitro Evaluation Approaches” (Pharmaceuticals, 2023).
Read-outs that look alike come from different tables or passages of the source.

How the values were obtained:
[1] = test system: human Coronavirus (HCoV-229E); assay: 229E inhibitory assay (cytopathic inhibition effect); assay type: cell-based, human Coronavirus 229E; settings: for IC50: read-out: IC50 229E inhibitory effect
Protocol: The antiviral effect of the compounds was examined in a human Coronavirus (HCoV-229E) inhibitory assay. The standard ribavirin (a well-established antiviral agent) was used as a positive control in this experiment.
The cytopathic inhibition effect was used to assess the antiviral and cytotoxicity of the compounds using a method described by Choi et al. (2009). Coronavirus 229E cells were used in this assay. The antiviral activity of the tested compounds was measured as a percentage using a method described by Pauwels et al.’s (1988) research. GraphPad Prism 5.0 software was used to analyze the results. Ribavirin was used as a positive standard in this assay, and DMSO was used as a negative standard.

K652 cancer cells = assay: MTT cytotoxicity assay, K652; assay type: cell-based; settings: K652, 48 h, read-out: IC50 K652
Protocol: (§1) The cytotoxicity effect of the new compounds was assessed in an MTT assay against chronic myelogenous leukemia (K652), colorectal (HCT116), and breast (MCF7) cancer cell lines. […] The data is presented in Table 4 as IC50 values (in µM).
(§2) Cells were obtained from American Type Culture Collection. The cell culture DMEM was obtained from Life Technologies and Invitrogen and supplied with 10% FBS from Hyclone, 1% penicillin-streptomycin, and 10 µg/mL insulin from Sigma-Aldrich.
(§3) The MTT assay was used to monitor the in vitro cytotoxicity of our compounds. […] Then, the cells were incubated with 10% v/v reconstituted MTT at 37 °C for 3 h.

CDK9 = CDK9 (Homo sapiens, UniProt P50750); assay: In vitro CDK9 kinase assay (BPS Biosciences kit)
Chain of CDK9 (P50750 whole entry): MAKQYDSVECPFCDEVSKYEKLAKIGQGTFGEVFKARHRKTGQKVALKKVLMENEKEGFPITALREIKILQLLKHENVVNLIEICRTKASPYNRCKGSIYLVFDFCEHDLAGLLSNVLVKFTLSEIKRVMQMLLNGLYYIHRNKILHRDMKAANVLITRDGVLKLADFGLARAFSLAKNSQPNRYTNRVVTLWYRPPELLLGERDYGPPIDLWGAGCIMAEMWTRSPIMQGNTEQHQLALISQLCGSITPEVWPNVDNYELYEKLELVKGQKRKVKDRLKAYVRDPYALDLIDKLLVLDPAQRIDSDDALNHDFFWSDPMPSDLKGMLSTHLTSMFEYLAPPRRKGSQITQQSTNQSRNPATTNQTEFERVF
Chain of CDK9 (O60563 whole entry, further chain): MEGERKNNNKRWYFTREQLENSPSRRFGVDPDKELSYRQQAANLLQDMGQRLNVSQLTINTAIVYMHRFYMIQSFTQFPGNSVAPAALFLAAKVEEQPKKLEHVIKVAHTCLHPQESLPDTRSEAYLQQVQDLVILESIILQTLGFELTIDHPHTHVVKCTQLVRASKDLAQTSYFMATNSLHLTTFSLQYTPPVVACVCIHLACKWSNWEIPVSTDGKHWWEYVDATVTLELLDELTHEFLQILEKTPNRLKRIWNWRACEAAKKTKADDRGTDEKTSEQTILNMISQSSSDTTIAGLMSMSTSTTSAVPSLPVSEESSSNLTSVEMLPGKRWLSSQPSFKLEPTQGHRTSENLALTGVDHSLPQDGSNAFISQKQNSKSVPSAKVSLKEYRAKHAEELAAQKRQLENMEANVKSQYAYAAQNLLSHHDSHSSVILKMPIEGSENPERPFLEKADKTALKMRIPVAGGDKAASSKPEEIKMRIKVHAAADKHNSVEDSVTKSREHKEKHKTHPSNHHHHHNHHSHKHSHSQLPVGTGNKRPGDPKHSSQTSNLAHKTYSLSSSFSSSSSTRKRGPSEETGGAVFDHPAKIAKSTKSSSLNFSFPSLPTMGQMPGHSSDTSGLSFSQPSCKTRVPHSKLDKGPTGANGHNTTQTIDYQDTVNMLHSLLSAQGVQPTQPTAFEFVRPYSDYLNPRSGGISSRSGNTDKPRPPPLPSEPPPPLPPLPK
Protocol: The in vitro kinase activity was measured using a CDK9 assay kit obtained from BPS Biosciences (San Diego, CA). The inhibitory effect of the tested compounds was assessed following the manufacturer’s instructions as indicated in the kit. GraphPad Prism 5.0 software was used to analyze the results.

MCF7 cancer cells = assay: MTT cytotoxicity assay, MCF7; assay type: cell-based; settings: Homo sapiens, 48 h, means (SD) of three trials
Protocol: as §1, §2
The MTT assay was used to monitor the in vitro cytotoxicity of our compounds. […] Then, the cells were incubated with 10% v/v reconstituted MTT at 37 °C for 3 h. The multiwell plates were then read using Wallac Victor2 1420 multilabel counter, and the absorbance was measured at a wavelength of 450 (ex) and 590 nm (em).

[2] = test system: MCF7, HCT116, and K652 cancer cells; assay: MTT cytotoxicity assay, average of the three cell lines; assay type: cell-based
Protocol: as §1, §2, §3

[3] = Cytotoxicity on target cells in the antiviral assay; settings: target cells of the HCoV-229E antiviral assay
FHC normal cells = assay: MTT assay against FHC normal cells; assay type: cell-based; settings: for IC50: read-out: FHC IC50; for SI (Selectivity Index) HCT116: FHC versus HCT116; for SI (Selectivity Index) K652: FHC versus K652; for SI (Selectivity Index) MCF7: FHC versus MCF7
Protocol: as §3

HCT116 cancer cells = assay: MTT cytotoxicity assay, HCT116; assay type: cell-based; settings: Homo sapiens, HCT-116, 48 h, means (SD) of three trials
Protocol: as §1, §2, §3

[4] = HCoV-229E, cytopathic effect inhibition
[5] = MTT assay, normal noncancerous cells

| Structure (SMILES) | SI selectivity index (CC50/IC50) ([1]; HCoV-229E) | IC50 [1, 4] [µM] | IC50 (K652 cancer cells) [µM] | IC50 (CDK9) [µM] | IC50 (MCF7 cancer cells) [µM] | IC50 [2] [µM] | CC50 [3] [µM] | IC50 (FHC normal cells; [5]) [µM] | IC50 (HCT116 cancer cells) [µM] | SI (Selectivity Index) HCT116 (FHC normal cells) | SI (Selectivity Index) K652 (FHC normal cells) | SI (Selectivity Index) MCF7 (FHC normal cells) | IC50 [1] [µM] | IC50 (FHC normal cells) [µM] |
| --- | --- | --- | --- | --- | --- | --- | --- | --- | --- | --- | --- | --- | --- | --- |
| COc1ccc(Nc2c(-c3ccoc3)nc3cnccn23)cc1 [Compound 1d, 2-(Furan-3-yl)-N-(4-methoxyphenyl) imidazo[1,2-a] pyrazin-3-amine] | 1.27 | 405 | 11.8 ± 0.19 | 0.18 ± 0.003 | 12.3 ± 0.17 | 11.6 | 846 | 187 ± 2.92 | 10.7 ± 0.16 |  |  |  |  |  |
| CC(C)(C)Nc1c(-c2ccnc(F)c2)nc2cnccn12 [Compound 4a, N-(Tert-butyl)-2-(2-fluoropyridin-4-yl) imidazo[1,2-a] pyrazin-3-amine] | 4.8 | 63.3 | 19.6 ± 0.26 | 0.24 ± 0.004 | 4.38 ± 0.06 | 20.7 | 303 |  | 38.2 ± 0.51 |  |  |  |  |  |
| Fc1cc(-c2nc3cnccn3c2NCc2ccccc2)ccn1 [Compound 4c, N-Benzyl-2-(2-fluoropyridin-4-yl) imidazo[1,2-a] pyrazin-3-amine] | 0.9 | 331 | 114 ± 1.7 | 1.11 ± 0.02 | 67.3 ± 1.01 | 92.8 | 271 |  | 97.4 ± 1.46 |  |  |  |  |  |
| CC(C)(C)Nc1c(-c2ccc(O)cc2O)nc2cnccn12 [Compound 2a, 4-(3-(Tert-butylamino)imidazo[1,2-a]pyrazin-2-yl)benzene-1,3-diol] |  |  | 71.05 ± 0.39 | 0.45 ± 0.008 | 48.26 ± 0.24 | 85.2 |  |  | 136.4 ± 0.25 |  |  |  |  |  |
| Fc1cc(-c2nc3cnccn3c2NC2CCCCC2)ccn1 [Compound 4b, N-Cyclohexyl-2-(2-fluoropyridin-4-yl) imidazo[1,2-a] pyrazin-3-amine] | 0.29 | 618 | 23.2 ± 0.81 | 1.22 ± 0.011 | 16.2 ± 0.41 | 18.2 | 174 | 74.3 ± 1.26 | 15.28 ± 0.13 | 4.8 | 3.2 | 4.5 |  |  |
| c1ccc(CNc2c(-c3ccoc3)nc3cnccn23)cc1 [Compound 1c, N-Benzyl-2-(furan-3-yl) imidazo[1,2-a]pyrazin-3-amine] |  |  | 24.8 ± 0.61 | 0.46 ± 0.008 | 17.4 ± 0.34 | 19.5 | 653 |  | 16.4 ± 0.69 |  |  |  | 516 | 61.7 ± 0.96 |
| c1cn2c(NC3CCCCC3)c(-c3ccoc3)nc2cn1 [Compound 1b, N-Cyclohexyl-2-(furan-3-yl) imidazo[1,2-a] pyrazin-3-amine] |  |  | 168 ± 5.99 | 1.78 ± 0.029 | 99.2 ± 3.08 | 144 |  |  | 164 ± 2.1 |  |  |  |  |  |
| Oc1ccc(-c2nc3cnccn3c2NCc2ccccc2)c(O)c1 [Compound 2c, 4-(3-(Benzylamino)imidazo[1,2-a]pyrazin-2-yl)benzene-1,3-diol] |  |  | 50.2 ± 0.69 | 0.65 ± 0.011 | 63.5 ± 0.7 | 56.8 |  |  | 56.56 ± 0.13 |  |  |  |  |  |
| CN(C)c1ccc(-c2nc3cnccn3c2NCc2ccccc2)cn1 [Compound 3c, N-Benzyl-2-(6-(dimethylamino)pyridin-3-yl)imidazo[1,2-a]pyrazin-3-amine] |  |  | 26.4 ± 0.43 | 0.33 ± 0.007 | 9.52 ± 0.15 | 26 |  |  | 42.2 ± 0.68 |  |  |  |  |  |
| COc1ccc(Nc2c(-c3ccc(N(C)C)nc3)nc3cnccn23)cc1 [Compound 3d, 2-(6-(Dimethylamino)pyridin-3-yl)-N-(4-methoxyphenyl) imidazo[1,2-a]pyrazin-3-amine] |  |  | 153 ± 2.99 | 1.66 ± 0.034 | 120 ± 2.02 | 140 |  |  | 147 ± 2.75 |  |  |  |  |  |
| Oc1ccc(-c2nc3cnccn3c2NC2CCCCC2)c(O)c1 [Compound 2b, 4-(3-(Cyclohexylamino)imidazo[1,2-a]pyrazin-2-yl)benzene-1,3-diol] |  |  | 38.8 ± 1.16 | 0.3 ± 0.006 | 45.9 ± 0.67 | 30.8 |  |  | 7.61 ± 2.12 |  |  |  |  |  |
| CC(C)(C)Nc1c(-c2ccoc2)nc2cnccn12 [Compound 1a, N-(Tert-butyl)-2-(furan-3-yl) imidazo[1,2-a] pyrazin-3-amine] | 1.25 | 1060 | 13.4 ± 0.19 | 0.19 ± 0.003 | 2.85 ± 0.03 | 12.6 | 1320 | 58.6 ± 0.8 | 21.6 ± 0.29 | 2.7 | 4.3 | 20.5 |  |  |
| CN(C)c1ccc(-c2nc3cnccn3c2NC(C)(C)C)cn1 [Compound 3a, N-(Tert-butyl)-2-(6-(dimethylamino)pyridin-3-yl)imidazo[1,2-a]pyrazin-3-amine] | 0.48 | 393 | 78.2 ± 1.32 | 0.3 ± 0.005 | 22.8 ± 0.33 | 35.1 | 186 |  | 4.13 ± 0.07 |  |  |  |  |  |
| CN[C@@H]1C[C@H]2O[C@@](C)([C@@H]1OC)n1c3ccccc3c3c4c(c5c6ccccc6n2c5c31)C(=O)NC4 [Staurosporine, reference compound] |  |  |  |  | 18.4 ± 0.4 |  |  |  |  |  |  |  |  |  |
| COc1ccc(Nc2c(-c3ccnc(F)c3)nc3cnccn23)cc1 [Compound 4d, 2-(2-Fluoropyridin-4-yl)-N-(4-methoxyphenyl) imidazo[1,2-a]pyrazin-3-amine] |  |  | 47.11 ± 0.26 | 0.57 ± 0.011 | 25.1 ± 0.39 | 27.5 |  |  | 10.2 ± 0.16 |  |  |  |  |  |
| CN(C)c1ccc(-c2nc3cnccn3c2NC2CCCCC2)cn1 [Compound 3b, N-Cyclohexyl-2-(6-(dimethylamino)pyridin-3-yl)imidazo[1,2-a]pyrazin-3-amine] | 0.37 | 590 | 4.5 ± 0.08 | 0.23 ± 0.005 | 16.4 ± 0.26 | 10.7 | 213 | 95.8 ± 1.72 | 11 ± 0.19 | 8.7 | 21.3 | 5.8 |  |  |
| NC(=O)c1ncn([C@@H]2O[C@H](CO)[C@@H](O)[C@H]2O)n1 [Ribavirin, reference compound] | 1.4 | 114 |  |  |  |  | 160 |  |  |  |  |  |  |  |
| COc1ccc(Nc2c(-c3ccc(O)cc3O)nc3cnccn23)cc1 [Compound 2d, 4-(3-((4-Methoxyphenyl)amino)imidazo[1,2-a]pyrazin-2-yl)benzene-1,3-diol] |  |  | 25.3 ± 0.91 | 0.89 ± 0.018 | 71.2 ± 0.99 | 66.8 |  |  | 104 ± 0.98 |  |  |  |  |  |
